For the assay, the target named is T1, human PDE5 (Homo sapiens, UniProt O76074).
T1 construct: from tissue; host or cells: platelets from fresh blood of human donors (lysate, 10,000 g supernatant)
As to the kind of experiment: Inhibition of the type 5 phosphodiesterase (PDE5) activity, modified SPA test with platelet lysate. In kind it is biochemical. As to conditions: PDE5 from human platelet lysate, 0.5 μM cGMP. In short, it runs like this: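 Human platelet lysate (10,000 g supernatant) as PDE5 source in SPA with 0.5 μM cGMP plus [3H]cGMP tracer, pH 7.4, 5 mM Mg2+, 1 μM motapizone and 10 nM PDE2 inhibitor; 10–20% conversion. 5 min preincubation, 15 min at 37 °C, stopped with SPA beads/IBMX. IC50 by non-linear regression.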
As usually defined, the IC50 is the midpoint of a concentration-inhibition curve. Low readings indicate inhibition by little substance, high ones a need for much substance. For `COCCOc1cc(OC)ccc1-c1ncnc2c(C(=O)N[C@H]3CC[C@@H](NC(C)=O)CC3)c[nH]c12` [Example 152, cis-4-[4-Methoxy-2-(2-methoxy-ethoxy)-phenyl]-5H-pyrrolo[3,2-d]pyrimidine-7-carboxylic acid (4-acetylamino-cyclohexyl)-amide], the IC50 is 14.5 nM.
Under `COCCOc1cc(OC)ccc1-c1ncnc2c(C(=O)N[C@H]3CC[C@@H](NC(=O)C4CC4)CC3)c[nH]c12` [Example 153, cis-4-[4-Methoxy-2-(2-methoxy-ethoxy)-phenyl]-5H-pyrrolo[3,2-d]pyrimidine-7-carboxylic acid [4-(cyclopropanecarbonyl-amino)cyclohexyl]-amide] stands 6.17 nM; under `COCCOc1cc(OC)ccc1-c1ncnc2c(C(=O)N[C@H]3CC[C@@H](NC(=O)COC)CC3)c[nH]c12` [Example 154, cis-4-[4-Methoxy-2-(2-methoxy-ethoxy)-phenyl]-5H-pyrrolo[3,2-d]pyrimidine-7-carboxylic acid [4-(2-methoxy-acetylamino)-cyclohexyl]-amide], 17 nM.
Under `COCCOc1cc(OC)ccc1-c1ncnc2c(C(=O)N[C@H]3CC[C@H](NC(C)=O)CC3)c[nH]c12` [Example 155, trans-4-[4-Methoxy-2-(2-methoxy-ethoxy)-phenyl]-5H-pyrrolo[3,2-d]pyrimidine-7-carboxylic acid (4-acetylamino-cyclohexyl)-amide] stands 9.55 nM; under `COCCOc1cc(OC)ccc1-c1ncnc2c(C(=O)N[C@H]3CC[C@H](NC(=O)C4CC4)CC3)c[nH]c12` [Example 156, trans-4-[4-Methoxy-2-(2-methoxy-ethoxy)-phenyl]-5H-pyrrolo[3,2-d]pyrimidine-7-carboxylic acid [4-(cyclopropanecarbonyl-amino)cyclohexyl]-amide], 6.61 nM.
Under `COCCOc1cc(OC)ccc1-c1ncnc2c(C(=O)N[C@H]3CC[C@H](NC(=O)COC)CC3)c[nH]c12` [Example 157, trans-4-[4-Methoxy-2-(2-methoxy-ethoxy)-phenyl]-5H-pyrrolo[3,2-d]pyrimidine-7-carboxylic acid [4-(2-methoxy-acetylamino)-cyclohexyl]-amide] stands 15.5 nM; under `COCCOc1cc(OC)ccc1-c1ncnc2c(C(=O)NC3CCN(C(C)=O)CC3)c[nH]c12` [Example 158, 4-[4-Methoxy-2-(2-methoxy-ethoxy)-phenyl]-5H-pyrrolo[3,2-d]pyrimidine-7-carboxylic acid (1-acetyl-piperidin-4-yl)-amide], 24 nM; under `COCCOc1cc(OC)ccc1-c1ncnc2c(C(=O)NC3CCN(C(=O)C4CC4)CC3)c[nH]c12` [Example 159, 4-[4-Methoxy-2-(2-methoxy-ethoxy)-phenyl]-5H-pyrrolo[3,2-d]pyrimidine-7-carboxylic acid (1-cyclopropanecarbonyl-piperidin-4-yl)-amide], 6.03 nM.
The molecule `COCCOc1cc(OC)ccc1-c1ncnc2c(C(=O)NC3CCN(C(=O)COC)CC3)c[nH]c12` [Example 160, 4-[4-Methoxy-2-(2-methoxy-ethoxy)-phenyl]-5H-pyrrolo[3,2-d]pyrimidine-7-carboxylic acid [1-(2-methoxy-acetyl)-piperidin-4-yl]-amide] gave an IC50 of 23.4 nM.
In turn, `COCCOc1ccc2c(c1-c1ncnc3c(C(=O)N[C@H]4CC[C@H](NC(C)=O)CC4)c[nH]c13)OCO2` [Example 161, trans-4-[5-(2-Methoxy-ethoxy)-benzo[1,3]dioxol-4-yl]-5H-pyrrolo[3,2-d]pyrimidine-7-carboxylic acid (4-acetylamino-cyclohexyl)-amide] gave a concentration for half-maximal inhibition (IC50) of 5.25 nM.
Under `COCCOc1ccc2c(c1-c1ncnc3c(C(=O)N[C@H]4CC[C@H](NC(=O)C5CC5)CC4)c[nH]c13)OCO2` [Example 162, trans-4-[5-(2-Methoxy-ethoxy)-benzo[1,3]dioxol-4-yl]-5H-pyrrolo[3,2-d]pyrimidine-7-carboxylic acid (4-(cyclopropanecarbonyl-amino)-cyclohexyl]-amide] stands 11 nM; under `COCCOc1ccc2c(c1-c1ncnc3c(C(=O)N[C@H]4CC[C@@H](NC(C)=O)CC4)c[nH]c13)OCO2` [Example 164, cis-4-[5-(2-Methoxy-ethoxy)-benzo[1,3]dioxol-4-yl]-5H-pyrrolo[3,2-d]pyrimidine-7-carboxylic acid (4-acetylamino-cyclohexyl)-amide], 7.76 nM; under `COCCOc1ccc2c(c1-c1ncnc3c(C(=O)N[C@H]4CC[C@@H](NC(=O)C5CC5)CC4)c[nH]c13)OCO2` [Example 165, cis-4-[5-(2-Methoxy-ethoxy)-benzo[1,3]dioxol-4-yl]-5H-pyrrolo[3,2-d]pyrimidine-7-carboxylic acid [4-(cyclopropanecarbonyl-amino)-cyclohexyl]-amide], 5.89 nM.
Under `COCCOc1ccc2c(c1-c1ncnc3c(C(=O)N[C@H]4CC[C@@H](NC(=O)COC)CC4)c[nH]c13)OCO2` [Example 166, cis-4-[5-(2-Methoxy-ethoxy)-benzo[1,3]dioxol-4-yl]-5H-pyrrolo[3,2-d]pyrimidine-7-carboxylic acid [4-(2-methoxy-acetylamino)-cyclohexyl]-amide] stands 10.2 nM.
Under `CCOC(=O)N[C@H]1CC[C@@H](NC(=O)c2c[nH]c3c(-c4c(OCCOC)ccc5c4OCO5)ncnc23)CC1` [Example 167, cis-[4-({4-[5-(2-Methoxy-ethoxy)-benzo[1,3]dioxol-4-yl]-5H-pyrrolo[3,2-d]pyrimidine-7-carbonyl}-amino)-cyclohexyl]-carbamic acid ethyl ester] stands 5.25 nM; under `COCCOc1ccc2c(c1-c1ncnc3c(C(=O)NC4CCN(C(C)=O)CC4)c[nH]c13)OCO2` [Example 168, 4-[5-(2-Methoxy-ethoxy)-benzo[1,3]dioxol-4-yl]-5H-pyrrolo[3,2-d]pyrimidine-7-carboxylic acid (1-acetyl-piperidin-4-yl)-amide], 7.94 nM.
The molecule `COCCOc1ccc2c(c1-c1ncnc3c(C(=O)NC4CCN(C(=O)C5CC5)CC4)c[nH]c13)OCO2` [Example 169, 4-[5-(2-Methoxy-ethoxy)-benzo[1,3]dioxol-4-yl]-5H-pyrrolo[3,2-d]pyrimidine-7-carboxylic acid (1-cyclopropanecarbonyl-piperidin-4-yl)-amide] showed an IC50 of 1.74 nM.
Under `COCCOc1ccc2c(c1-c1ncnc3c(C(=O)NC4CCN(C(=O)COC)CC4)c[nH]c13)OCO2` [Example 170, 4-[5-(2-Methoxy-ethoxy)-benzo[1,3]dioxol-4-yl]-5H-pyrrolo[3,2-d]pyrimidine-7-carboxylic acid [1-(2-methoxy-acetyl)piperidin-4-yl]-amide] stands 13.8 nM; under `O=C(NC1CCN(C(=O)CO)CC1)c1c[nH]c2c(-c3c(OCC4CC4)ccc4c3OCO4)ncnc12` [Example 171, 4-(5-Cyclopropylmethoxy-benzo[1,3]dioxol-4-yl)-5H-pyrrolo[3,2-d]pyrimidine-7-carboxylic acid [1-(2-hydroxy-ethanoyl)-piperidin-4-yl]amide], 0.302 nM; under `O=C(CO)N[C@H]1CC[C@H](NC(=O)c2c[nH]c3c(-c4c(OCC5CC5)ccc5c4OCO5)ncnc23)CC1` [Example 172], 0.112 nM.
Under `C[C@H](O)C(=O)N[C@H]1CC[C@H](NC(=O)c2c[nH]c3c(-c4c(OCC5CC5)ccc5c4OCO5)ncnc23)CC1` [Example 173] stands 0.186 nM; under `O=C(CO)N[C@H]1CC[C@@H](NC(=O)c2c[nH]c3c(-c4c(OCC5CC5)ccc5c4OCO5)ncnc23)CC1` [Example 174], 0.389 nM; under `C[C@H](O)C(=O)N[C@H]1CC[C@@H](NC(=O)c2c[nH]c3c(-c4c(OCC5CC5)ccc5c4OCO5)ncnc23)CC1` [Example 175], 0.245 nM.
Under `C[C@H](O)C(=O)N1CCC(NC(=O)c2c[nH]c3c(-c4c(OCC5CC5)ccc5c4OCO5)ncnc23)CC1` [Example 176, 4-(5-Cyclopropylmethoxy-benzo[1,3]dioxol-4-yl)-5H-pyrrolo[3,2-d]pyrimidine-7-carboxylic acid [1-((S)-2-hydroxy-propanoyl)-piperidin-4-yl]amide] stands 0.245 nM.
Molecule `O=C(N[C@H]1CC[C@H](NC(=O)C2(O)CC2)CC1)c1c[nH]c2c(-c3c(OCC4CC4)ccc4c3OCO4)ncnc12` [Example 177, trans-4-(5-Cyclopropylmethoxy-benzo[1,3]dioxol-4-yl)-5H-pyrrolo[3,2-d]pyrimidine-7-carboxylic acid {4-[(1-hydroxy-cyclopropanecarbonyl)-amino]-cyclohexyl}-amide] had an IC50 of 0.123 nM.
Under `O=C(N[C@H]1CC[C@@H](NC(=O)C2(O)CC2)CC1)c1c[nH]c2c(-c3c(OCC4CC4)ccc4c3OCO4)ncnc12` [Example 178, cis-4-(5-Cyclopropylmethoxy-benzo[1,3]dioxol-4-yl)-5H-pyrrolo[3,2-d]pyrimidine-7-carboxylic acid {4-[(1-hydroxy-cyclopropanecarbonyl)-amino]-cyclohexyl}-amide] stands 0.229 nM; under `O=C(NC1CCN(C(=O)C2(O)CC2)CC1)c1c[nH]c2c(-c3c(OCC4CC4)ccc4c3OCO4)ncnc12` [Example 179, 4-(5-Cyclopropylmethoxy-benzo[1,3]dioxol-4-yl)-5H-pyrrolo[3,2-d]pyrimidine-7-carboxylic acid {1-[1-(1-hydroxy-cyclopropyl)methanoyl]-piperidin-4-yl}-amide], 0.182 nM.
Under `O=C(N[C@@H]1CCN(C(=O)CO)C1)c1c[nH]c2c(-c3c(OCC4CC4)ccc4c3OCO4)ncnc12` [Example 180, 4-(5-Cyclopropylmethoxy-benzo[1,3]dioxol-4-yl)-5H-pyrrolo[3,2-d]pyrimidine-7-carboxylic acid [(R)-1-(2-hydroxy-ethanoyl)-pyrrolidin-3-yl]amide] stands 1.2 nM.

The values above are taken from patent publication US8445501B2, “Substituted 7-carboxamido-pyrrolo[3,2-d]pyrimidines” (Takeda GmbH, priority 2008, dated 2013).
